Our source for the melting point values is patent US20040023974A1, “Cyclic sulfamide derivatives and methods of use” (priority 2002, published 2004).

Structures can show the parent of a compound that is named as a salt. Some results are limits rather than exact numbers.

For `O=C1CN(c2ccc(CC3NC(=O)c4ccccc4NC3=O)cc2O)S(=O)(=O)N1` (centres unmarked) [Example 44, 3-[3-Hydroxy-4-(1,1,4-trioxo-[1,2,5]thiadiazolidin-2-yl)-benzyl]-3,4-dihydro-1H-benzo[1,4]diazepine-2,5-dione], the melting point came to 180 °C.
As to `COc1ccc(N2CC(=O)NS2(=O)=O)c(OC)c1.[K]`, the melting point was more than 260 °C.
For `O=C1CN(Cc2cccc(I)c2)S(=O)(=O)N1` [Example 4, 5-(3-Iodobenzyl)-1,1-dioxo-1,2,5-thiadiazolidin-3-one], the melting point was 101 to 103 °C.
The compound `CCn1c(C)nc2cc(CN3CC(=O)NS3(=O)=O)ccc21` (as salt: TFA) [Example 11, 5-(1-Ethyl-2-methyl-1H-benzoimidazol-5-ylmethyl)-1,1-dioxo-1-1,2,5-thiadiazolidin-3-one] showed a melting point of 255 to 265 °C.
Then `Cc1cc(OCC(=O)NCc2ccccc2)ccc1N1CC(=O)NS1(=O)=O` [Example 43, N-Benzyl-2-[3-methyl-4-(1,1,4-trioxo-[1,2,5]thiadiazolidin-2-yl)-phenoxy]-acetamide], with 70 to 90 °C; and `Cc1nc2cc(CN3CC(=O)NS3(=O)=O)ccc2n1CCC(C)C` [Example 12, 5-[2-Methyl-1-(3-methyl-butyl)-1H-benzoimidazol-5-ylmethyl]-1,1-dioxo-1-1,2,5-thiadiazolidin-3-one], with 70 to 75 °C.
On to `O=C1CN(c2ccc(I)cc2)S(=O)(=O)N1` [Example 45, 5-(4-Iodo-phenyl)-1,1-dioxo-1,2,5-thiadiazolidin-3-one], for which the melting point is 191 to 193 °C.
`CCOC(=O)C(Cc1ccc(CN2CC(=O)NS2(=O)=O)cc1)(NC(C)=O)C(=O)OCC` [Example 10-23, 2-Acetylamino-2-[4-(1,1,4-trioxo-1,2,5-thiadiazolidin-2-ylmethyl)-benzyl]-malonic acid diethyl ester]: the melting point is 197 °C.

The term melting point denotes the temperature of the solid-liquid transition.
